Where a SMILES comes first, the peptide text is derived from it. [ ]: non-standard residue; d: D form. pY = N[C@@H](Cc1ccc(OP(=O)(O)O)cc1)C(=O)O
Columns and labels:
[1] = Inhibition of melanoma cell adhesion to type IV collagen; assay type: functional, Homo sapiens
[2] = Inhibition of melanoma cell adhesion to type IV collagen;NE=no effect; assay type: functional, Homo sapiens

Row | Molecule | IC50 [1] | IC50 [2]
1 | H-VEILY-OH | 90 µM | –
2 | CC[C@H](C)[C@H](NC(=O)[C@H](CCC(=O)O)NC(=O)[C@@H](N)C(C)C)C(=O)N[C@@H](CC(C)C)C(=O)N[C@@H](Cc1ccc(OP(=O)(O)O)cc1)C(=O)O (H-VEIL[pY]-OH) | 10 µM | –
3 | H-YLIEV-OH | – | Not Active

Reference: ChEMBL document CHEMBL1130153, “Inhibition of melanoma cell binding to type IV collagen by analogs of cell adhesion regulator” (J Med Chem, 1997)
